Ends that are not written are not given here.
What was measured:
PAR1 [1] = assay: Free intracellular calcium in cultured astrocytes (Fluo-3 AM); assay type: cell-based, mouse
cortical astrocytes = assay: Astrocyte proliferation by BrdU incorporation; assay type: cell-based, mouse; settings: for number of BrdU-positive cells: astrocyte cultures from wild type mice, 3 or 30 micromolar, 24 hours
Protocol: Cortical astrocytes from wild type and PAR1−/− knockout mice were either untreated (control) or treated for 24 hours with a 3 or 30 micromolar concentration of the peptide TFLLR-NH2 (SEQ ID NO: 1), which selectively activates PAR1. Cells were pulse-labeled with BrdU for the final 2 hours of culture.

PAR1 [2] = assay: PI hydrolysis in hippocampal slices; assay type: cell-based, mouse; settings: wild type hippocampus / hippocampal slices
Text: PAR1 is a seven transmembrane G-protein coupled receptor that stimulates G-alpha-q to initiate phosphatidyl inositol (PI) hydrolysis. To ensure that PAR1 is functional in regions of the brain that are subject to ischemic damage in the mouse transient focal ischemia model, we tested the ability of several activators of PAR1 to initiate PI hydrolysis (Chung et al., 1997) in the hippocampus and striatum.
Since tPA activates plasminogen to form plasmin, we tested whether exogenously applied tPA could activate endogenous plasminogen in brain slices to form plasmin and activate PAR1.

NMDA receptor [3] = assay: Whole cell patch recording of NMDA-evoked currents in hippocampal slice CA1 pyramidal neurons; assay type: cell-based, rat; settings: for average peak potentiation by thrombin: 1.4 mM Mg2+, n=19
NR1 subunit [4] = assay: NMDA receptor subunit immunoblots of thrombin-treated brain membranes; assay type: biochemical, rat
Protocol: (§1) NMDA receptor subunit immunoblots. Human embryonic kidney (HEK) cells were maintained in DMEM supplemented with 0.5 mM glutamine, 1 mM pyruvate, penicillin, streptomycin, and 10% fetal bovine serum in a humidified environment with 5% CO2, and transfected with 1 microgram/ml of NR1 or 1:2 microgram/ml NR1:NR2 cDNA. Cells were washed in ice-cold HEPES buffered saline (HBS), scraped on ice, and membranes isolated by centrifugation at 12,000×g. […] Adult rat brain regions were dissected, frozen in liquid nitrogen, homogenized in ice-cold HEPES buffered saline (HBS), centrifuged, and stored at −20° C. Membranes were resuspended in HBS and treated with thrombin or buffer for 30 min at 37° C. Samples were centrifuged, and the membrane pellet resuspended in 2% sodium dodecylsulphate (SDS), 62.5 mM Tris, 10% glycerol, 5% beta-mercaptoethanol, 0.05% bromophenol blue (pH 6.8); some samples were treated with IOU DNase for 10 min at 37° C. SDS/polyacrylamide gel electrophoresis (SDS/PAGE) and protein blotting to Immobilon-P membranes was performed as described (Lau and Huganir, Differential tyrosine phosphorylation of N-methyl-D-aspartate receptor subunits. J Biol Chem 270: 20036-20041, 1995). Membranes were blocked for 30 min in 0.2 M Tris base, 1.37 M NaCl, pH 7.4, containing 5% nonfat dry milk, and incubated overnight at 4° C. in primary antibodies: NR1 mAb54.1 (gift from Dr. S. Heinemann, Salk Institute, La Jolla Calif.), NR1 alt-C-terminal (Upstate Biotechnology, Lake Placid, N.Y.), NR2A C-terminal (Chemicon, Temecula, Calif.), or NR2B C-terminal (Upstate Biotechnology). Membranes were washed 3×, and incubated with HRP-conjugated goat anti-mouse or goat anti-rabbit antibodies (1:10,000), washed 3×, and developed using enhanced chemiluminescence. The percent of receptor cleaved by thrombin was determined using densitometry.

PAR1 [5] = assay type: cell-based, rat
NR1 subunit [6] = molecular target: T1, NR1 subunit (Rattus norvegicus, UniProt P35439); assay: Thrombin cleavage of recombinant NR1 subunits in HEK 293 cells (immunoblot); assay type: biochemical; settings: 10-1000 U/ml thrombin
T1 construct: expressed in transfected cells; host or cells: HEK 293 cells, transient transfection; isolated membranes treated with thrombin
Protocol: as §1, with “Membranes were blocked for 30 min in 0.2 M Tris base, 1.37 M NaCl, pH 7.4, containing 5% nonfat dry milk, and incubated overnight at 4° C. in primary antibodies: NR1 mAb54.1 (gift from Dr. S. Heinemann, Salk Institute, La Jolla Calif.), NR1 alt-C-terminal (Upstate Biotechnology, Lake Placid, N.Y.), NR2A C-terminal (Chemicon, Temecula, Calif.), or NR2B C-terminal (Upstate Biotechnology). Membranes were washed 3×, and incubated with HRP-conjugated goat anti-mouse or goat anti-rabbit antibodies (1:10,000), washed 3×, and developed using enhanced chemiluminescence.” left out

NMDA receptor [7] = assay: Whole cell patch recording of NMDA-evoked currents in hippocampal CA1 pyramidal cells of wild-type and PAR1-/- mice; assay type: cell-based, mouse
NMDA receptor [8] = assay: Two electrode voltage clamp of recombinant NMDA receptors with or without PAR1 in Xenopus oocytes; assay type: cell-based, Xenopus laevis
Protocol: Expression and recording of NMDA and PAR1 receptor function in Xenopus laevis oocvtes. cRNA was synthesized from linearized template cDNA according to manufacturer specifications (Ambion, Austin, Tex.). Xenopus oocytes were removed from ovaries of female frogs anesthetized with 0.3% 3-aminobenzoic acid ethylester. Groups of 20-30 stage V-VI oocytes were incubated in 292 U/ml Worthington (Freehold, N.J.) Type IV collagenase for 2 hours with slow shaking. The oocytes were rinsed in Barth's solution, and stored at 17° C. in Barth's solution supplemented with 100 microgram/ml gentamycin and 40 microgram/ml streptomycin. Control oocytes were injected with 3 ng NR1 subunit and 7 ng NR2B subunit. Other oocytes were injected with the NMDA receptor subunits plus 3 ng PAR1 cRNA. Two electrode voltage clamp recordings were made 3-7 days post-injection. Oocytes were continually perfused with recording solution (in mM, 90 NaCl, 1 KCl, 10 HEPES, pH 7.4) and held under voltage clamp at −30 to −50 mV with an OC-725B amplifier (Warner Instruments, Hamden, Conn.). Recording solution was supplemented with 1.0 mM CaCl2 during initial impalement of the oocytes and subsequently 0.5 mM BaCl2 during recording to reduce the calcium-activated chloride current endogenous to oocytes. […] NMDA receptor currents were evoked by 20 micromolar glutamate/10 micromolar glycine perfused for 0.5-1 minute. […] Expression of PAR1 protein was verified by a thrombin or SFLLRN-stimulated rapidly desensitizing inward current at −30 mV that reflects the Ca^2+-activated Cl^− current endogenous to the oocyte. To test the ability of thrombin to modify NMDA receptor function in oocytes, recordings of receptor function were made both before and after a 15-60 min incubation in recording solution supplemented with thrombin in Eppendorf tubes at room temperature. […] Oocytes with responses less than 50 nA were not included in the analysis.

hippocampal slices = assay: Transmitted light measurements in hippocampal slices (extracellular volume fraction); assay type: cell-based, rat; settings: 3-7 U/ml thrombin, 10-20 minutes
Protocol: Rat hippocampal slices were prepared as described above, and were bathed in a submerged chamber with 0.5 micromolar TTX, and 3-7 U/ml thrombin in 0.5 micromolar TTX applied for 10-20 minutes. The intensity of transmitted light (450-490 nm) through hippocampal slices was monitored as an indication of extracellular volume fraction (Andrew and MacVicar, Imaging cell volume changes and neuronal excitation in the hippocampal slice. Neuroscience 62: 371-383, 1994). Images were recorded using a Princeton Micromax CCD camera (Trenton, N.J.; 0.2 sec exposure every 20 to 40 sec) and analyzed using Axon Imaging Workbench 2.1 software (Foster City, Calif.). Intensity was expressed as I/Io where Io is the intensity of transmitted light prior to treatment. Solutions were made hyperosmotic by addition of 30 mM mannitol, which can produce a 10% expansion of the extracellular volume fraction (McBain et al. Regional variation of extracellular space in hippocampus. Science 249: 674-677, 1990). Hypoosmotic solutions were obtained by addition of 10% v/v water.

NR1 subunit [9] = assay: NMDA receptor subunit immunoblots of thrombin-treated brain membranes; assay type: biochemical, rat; remark: listed apart in the source

Substance: TFLLR-NH2 [specific PAR1 agonist peptide]
- free intracellular calcium (PAR1 [1]; cultured astrocytes from PAR1-/- knockout mice): does not increase free intracellular calcium
- free intracellular calcium (PAR1 [1]; cultured astrocytes from wild type mice): increases free intracellular calcium
- number of BrdU-positive cells (cortical astrocytes): increases the number of BrdU-positive cells
- number of BrdU-positive cells (cortical astrocytes; listed as TFLLR): can stimulate astrocyte proliferation
- PI hydrolysis (PAR1 [2]): increased PI hydrolysis

Substance: bisindolylmaleimide [reference compound]
- potentiation of NMDA receptor currents by thrombin in presence of BIS (NMDA receptor [3]; BIS 10 microM in ACSF, 30 nM (3 U/ml) thrombin, n=10): 1.20±0.13 fold
- NMDA responses during preapplication of BIS (NMDA receptor [3]; BIS alone): unchanged

Substance: hirudin [reference compound]
- potentiation by thrombin of NMDA responses in presence of hirudin (NMDA receptor [3]; 3 U/ml thrombin + 100 ATU hirudin, average potentiation 12-19 min post treatment, n=5): 0.96±0.23 fold
- block of NR1 cleavage by 30 nM thrombin (NR1 subunit [4]; striatal membranes, 100 ATU hirudin): blocked cleavage

Substance: pertussis toxin
- inhibition of PAR1-induced astrocyte proliferation (cortical astrocytes; 24-hour pre-treatment, counting of BrdU-positive cells): could be inhibited

Substance: thrombin
- peak potentiation of NMDA responses (NMDA receptor [3]; 30 nM (3 U/ml) thrombin, -70 mV, within 20 minutes, n=21): 2.07±0.27 fold
- average peak potentiation by thrombin (NMDA receptor [3]; -40 mV): 1.48±0.11 fold
- average peak potentiation by thrombin (NMDA receptor [3]; -70 mV): 2.10±0.29 fold
- thrombin potentiation of the NMDA response (NMDA receptor [3]; cells excluded for low input resistance or increased series resistance, n=12): 1.8±0.2 fold
- thrombin-induced potentiation (NMDA receptor [3]; cells held at 0 mV, briefly stepped to -70 mV, n=7): 2.7±0.7 fold
- NR1 subunits cleaved (NR1 subunit [4]; 1-3 micromolar thrombin, all brain regions except striatum): 100%
- molecular weight shift of NR2A or NR2B subunits (NR1 subunit [4]; brain membranes, 3-300 U/ml thrombin): did not induce any observable molecular weight shift
- cleavage of NR1 subunits (NR1 subunit [4]; cerebellar, cortical and brainstem membranes, 300 nM thrombin (30 U/ml)): insensitive to cleavage
- NR1 cleaved (NR1 subunit [4]; striatal membranes, 30 nM thrombin (3 U/ml)): 50%
- maximal observed cleavage of NR1 (NR1 subunit [4]; striatum, 1-3 micromolar thrombin): 52%
- Fluo-3 fluorescence in soma and dendrites (PAR1 [5]): robust increase
- cleavage of recombinant NR1-1b and NR1-1b/NR2B receptors (NR1 subunit [6]): cleaved both homomeric NR1-1b receptors
- PI hydrolysis (PAR1 [2]): increased PI hydrolysis
- NMDA receptor responses (NMDA receptor [7]; PAR1-/- C57B1/6 mice, thrombin application): did not significantly increase
- potentiation of responses to pressure-applied NMDA plus glycine (NMDA receptor [7]; wild-type C57B1/6 mice, 3 U/ml thrombin): robust potentiation
- potentiation of NR1-1a/NR2A receptors coexpressed with PAR1 (NMDA receptor [8]; 3 nM thrombin, n=6): 1.68±0.11 fold
- potentiation of NR1-1a/NR2A receptors coexpressed with PAR1 (NMDA receptor [8]; 300 μM thrombin (so in the source), n=7): 1.37±0.08 fold
- current response amplitude after incubation (NMDA receptor [8]; 300-1000 nM thrombin, 60 minutes, n=7, buffer controls 78±5%): 42±9%
- ratio of NMDA receptor-mediated current after to before application (NMDA receptor [8]; NR1-1a/NR2B, oocytes without PAR1, n=9): 0.87±0.04
- PAR1 potentiation of NR1-1a(C798A)/NR2B receptors (NMDA receptor [8]; control oocytes lacking PAR1, n=5): 0.98±0.05
- cleavage of NR1 subunit (NMDA receptor [8]; low concentrations of thrombin (0.3-3 nM)): did not produce any cleavage
- response amplitude of NR1/NR2A and NR1/NR2B receptors vs buffer (NMDA receptor [8]; oocytes lacking thrombin receptors, 3 U/ml, 15 minutes, 23 C): no significant difference
- PAR1 potentiation of NR1-1a(C798A)/NR2B receptors (NMDA receptor [8]; oocytes with PAR1, n=7): 1.35±0.07
- potentiation of NR2A containing receptors (NMDA receptor [8]; presence of 10 micromolar EDTA, n=12): 2.01±0.17 fold
- amplitude of NMDA receptor responses, NR1-1a with NR2c or NR2D (NMDA receptor [8]; thrombin activation of PAR1): unaffected
- intensity of transmitted light I/Io (hippocampal slices; stratum pyramidale): 1.00±0.01
- intensity of transmitted light I/Io (hippocampal slices; stratum radiatum): 1.01±0.01
- predicted cleavage of NR1 protein (NR1 subunit [9]; 15 minute treatment of slices at 23 C, 3 U/ml, extrapolated assuming linear time, Q10 2.5): 1%
- NR1 cleavage product in CA1 region microdissected from slices (NR1 subunit [9]; 15 minutes of 3 U/ml thrombin application at 23 C): no NR1 cleavage product was observed
- NR1 subunit cleaved (NR1 subunit [9]; hippocampal membranes, 30 nM thrombin (3 U/ml), 1 hour at 37 C): 20%

From patent US20080125498A1, “TREATMENT OF NEURODEGENERATIVE DISEASES AND CONDITIONS USING PAR1 ANTAGONISTS” (priority 2001, published 2008)
